# Assay results taken from patent publication USRE46718E1, “Compositions comprising Lactobacillus plantarum strains in combination with tannin and new Lactobacillus plantarum strains” (Probi AB, priority 2003, dated 2018).
# What was measured:
# [1] = system: ischemia/reperfusion injury; test: Lipid peroxidation after ischemia/reperfusion injury in mice (LPO-586 colorimetric assay); type: in vivo, Balb/C mice
# Excerpt: Fifteen Balb/C mice were divided into five groups (3 mice per group) and fed different combinations of normal food, rose hip powder (rich in tannins) and the tannase positive strain Lactobacillus plantarum 299v. The constituents were mixed with some water to get a mushy consistency. Groups 1 and 2 were given normal mouse food, Group 3 got the normal food supplemented with rose hip powder (1.6 g per day), Group 4 got normal food supplemented with L. plantarum 299v (10^10 bacteria per dose) and Group 5 got normal food supplemented with both the rose hip powder and L. plantarum 299v. The mice were fed once a day for 6-8 days before inducing an ischemia/reperfusion injury. The injury was done according to the following dissection protocol: Mice were given 0.15 ml of Ketamine/Xylazine solution (7.85 mg/ml and 2.57 mg/ml, respectively) subcutaneously for anesthesia. […] 1.0 ml PBS was injected into the peritoneal cavity for fluid resuscitation. […]
# Lipid peroxidation is a well-established mechanism of cellular injury and is used as an indicator of oxidative stress in cells and tissues. […] LPO-586™ is a colorimetric assay designed to quantify MDA and is based on the reaction of a chromogenic reagent, N-methyl-2-phenylindole with MDA at 45° C. One molecule of MDA reacts with two molecules of N-methyl-2-phenylindole to yield a stable chromophore with maximal absorbance at 586 nm.
# [2] = system: Bacterial flora in caecum; test: Bacterial flora in caecum after ischemia/reperfusion injury in mice (viable count); type: in vivo, Balb/C mice; details: caecum stool after ischemia/reperfusion
# Excerpt: Fifteen Balb/C mice were divided into five groups (3 mice per group) and fed different combinations of normal food, rose hip powder (rich in tannins) and the tannase positive strain Lactobacillus plantarum 299v. The constituents were mixed with some water to get a mushy consistency. Groups 1 and 2 were given normal mouse food, Group 3 got the normal food supplemented with rose hip powder (1.6 g per day), Group 4 got normal food supplemented with L. plantarum 299v (10^10 bacteria per dose) and Group 5 got normal food supplemented with both the rose hip powder and L. plantarum 299v. The mice were fed once a day for 6-8 days before inducing an ischemia/reperfusion injury. The injury was done according to the following dissection protocol: Mice were given 0.15 ml of Ketamine/Xylazine solution (7.85 mg/ml and 2.57 mg/ml, respectively) subcutaneously for anesthesia. […] 1.0 ml PBS was injected into the peritoneal cavity for fluid resuscitation. […] The abdomen was then closed using a running vicryl 3-0 suture. The animal was allowed to awake from anesthesia and was removed from the warming pad and placed back into the cage. After 4 h and 15 min, the animal was given anesthesia again and tissue and stool samples were obtained in the following order and placed in preweighed tubes: liver tissue, ilium mesentery tissue and cecum stool for bacteriological sampling, and cecum and ilium tissue for colorimetric assay for lipid peroxidaton, and cecum and ilium tissue for histological examination. The samples for bacteriological evaluation were weighed and placed in freezing media and frozen immediately at −70° C. Samples for colorimetric assay (LPO586) were rinsed in PBS, weighed, homogenized, aliquoted and then frozen immediately at −70° C.
# Bacteriological evaluation was performed by viable count by anaerobic incubation (BBL Gas Pak Plus, Becton Dickinson and Company, Sparks, Md., USA) on Rogosa-agar (Merck, Darmstadt, Germany) at 37° C. for 3 d, VRBD-agar (Merck, Darmstadt, Germany) at 37° C. for 24 h and Brain heart infusion agar (BHI; Oxoid, Basingstoke, Hampshire, England) at 37° C. for 3 d. Viable count on BHI was also done aerobically.
# [3] = Screening for tannase activity (breakdown of methylgallate, Osawa and Walsh); type: biochemical; design: key to Tannase activity (positive or negative): +: Positive tannase activity is shown as a green to brown coloration of free gallic acid in the cell-suspension after prolonged exposure to oxygen in an alkaline condition; details: for Tannase activity (positive or negative): 24 h incubation with methylgallate at 37° C., visual colour; for Quantitative tannase activity (A440/A620): ratio of A440 after 24 h incubation with methylgallate and A620 of cell-suspension at start; for Tannase activity, in words: where comparative, versus Lactobacillus plantarum 299v
# Description: The applied method to detect tannase activity has earlier been described by Osawa and Walsh (1993). The detecting principle is that the breakdown of the tannin, methylgallate, is measured by the following procedure:
# The test bacterium is cultured anaerobically on MRSagar (Merck, Darmstadt, Germany) for 2 d at 37° C. and then the cells are harvested and suspended in 5 ml 0.9% (w/v) NaCl. The cell-suspension is centrifuged and the cells re-suspended in 10 ml 0.9% NaCl and the absorbance is measured at 620 nm (0.9% NaCl solution as standard). The cell-suspension is diluted until the absorbance is between 0.1 and 0.6 (spectrophotometer, Pharmacia LKB, Novaspec II). After centrifugation, the cells are re-suspended in 1 ml methylgallate-buffer (3.7 g/l methylgallate [Aldrich Chemical Company, Inc., Milwaukee, Wis., USA], 4.5 g/l NaH2PO4, pH=5.0 [sterile filtered]) and the tube is incubated at 37° C. for 24 h. One ml of NaHCO3-buffer (42 g NaHCO3 per litre, pH=8.6) is added and the solution is incubated for 1 h at room temperature, before measurement of the absorbance at 440 nm (NaHCO3-buffer as standard). The colour of the suspension is measured by visual determination.
# The colour should be brown or green to be graded as positive tannase activity. A quantitative value of the tannase activity was obtained by the ratio between the absorbance of the cell-suspension (A620; amount of cells) at the start of the incubation with methylgallate versus the absorbance after the 24 h incubation with methylgallate (A440; coloration of free gallic acids after exposure to oxygen in an alkaline condition).
# [4] = system: human colonic carcinoma cell-line HT-29; test: Adhesion to HT-29 cells; type: cell-based; details: for Adhesion to HT-29 cells, in salt solution: HBSS, 30 minutes, mean of at least 40 cells; for Capacity to adhere to human colonic mucosa cells, in words: compared with Lactobacillus plantarum 299v
# Description: In total 32 L. plantarum strains isolated from human mucosa were tested as to adherence to intestinal epithelial cells of human colonic carcinoma cell-line HT-29 with a mannose-specific binding (method as described by Wold, A, et al, Infection and Immunity, October 1988, p. 2531-2537). Cells of the human adenocarcinoma cell line HT-29 were cultured in Eagle's medium supplemented with 10% fetal calf serum, 2 mM L-glutamine and 50 ig/ml of gentamicin (Sigma Chemical Co., Saint Louis, Mo., USA). A few days after the cells had reached confluence they were detached with EDTA-containing buffer (0.54 mM), washed and suspended in Hank's balanced salt solution (HBSS) at 5×10^6/ml. The bacteria were harvested, washed and suspended in HBSS at 5×10^9/ml (2× an optical density of 1.5 at 597 nm). Cells, bacteria and HBSS were mixed in the ratio 1:1:3 and incubated with end-over-end rotation for 30 minutes at 4EC. The cells were washed once with ice cold PBS and fixed with neutral buffered formalin (Histofix, Histolab, Götebrog, Sweden). The number of bacteria attached to each of at least 40 cells was determined using interference contrast microscopy (500× magnification, Nicon Optophot, with interference contrast equipment, Bergström Instruments, Göteborg, Sweden) and the mean number of bacteria per cell was calculated.
Substance,"MDA (lipid peroxidation), in words ([1]; compared to the positive control (Group 2))","Malondialdehyde (MDA) per g colonic tissue [median-value] ([1]; mice fed once a day for 6-8 days before 30 min ischemia, sampled 4 h 15 min after reperfusion, Control B 6.3, uninjured 4.3)","Median of viable count, Total aerobes ([2]; BHI agar aerobic)","Median of viable count, Total anaerobes ([2]; BHI agar anaerobic)","Median of viable count, Lactobacilli ([2]; Rogosa-agar)","Median of viable count, Enterobacteriaceae ([2]; VRBD-agar)",Tannase activity (positive or negative) [3],Quantitative tannase activity (A440/A620) [3],"Adhesion to HT-29 cells, in salt solution [4]","Adhesion to HT-29 cells, in presence of methyl-mannoside [4]","Tannase activity, in words [3]","Capacity to adhere to human colonic mucosa cells, in words [4]"
"Lactobacillus plantarum 299v, DSM 9843 [Strain 299v]",decreased the MDA,5.8,4 × 10^9 CFU per a caecal content,3 × 10^9 CFU per a caecal content,2 × 10^9 CFU per a caecal content,3 × 10^3 CFU per a caecal content,+,6.2,11.7 number of bacteria per cell,3.4 number of bacteria per cell,–,–
"Lactobacillus plantarum HEAL 9, DSM 15312",–,–,–,–,–,–,+,6.4,20 number of bacteria per cell,2.1 number of bacteria per cell,higher tannase activity,higher capacity to adhere
"Lactobacillus plantarum HEAL 19, DSM 15313",–,–,–,–,–,–,+,7.4,23 number of bacteria per cell,5.0 number of bacteria per cell,higher tannase activity,higher capacity to adhere
"Lactobacillus plantarum HEAL 99, DSM 15316",–,–,–,–,–,–,+,6.8,20 number of bacteria per cell,2.0 number of bacteria per cell,higher tannase activity,higher capacity to adhere
